In PubChem BioAssay (NCI):
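Following 48 hours of exposure in 96-well plates, responses at five concentrations were used to interpolate endpoints linearly. TGI: concentration producing complete growth inhibition.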

Tests used:
Assay in all cases: inhibition of tumour cell growth, NCI panel, 48 h
[1] = test system: SF-295 CNS
[2] = test system: HT29 colon
[3] = test system: M14 melanoma
[4] = test system: M19-MEL melanoma
[5] = test system: KM20L2 colon
[6] = test system: NCI-H460 lung
[7] = test system: IGROV1 ovarian
[8] = test system: SK-OV-3 ovarian
[9] = test system: HCT-116 colon
[10] = test system: SK-MEL-2 melanoma
[11] = test system: RXF 393 renal
[12] = test system: UO-31 renal
[13] = test system: SNB-78 CNS
[14] = test system: OVCAR-3 ovarian
[15] = test system: UACC-257 melanoma
[16] = test system: HOP-92 NSCLC
[17] = test system: SF-539 CNS
[18] = test system: OVCAR-5 ovarian
[19] = test system: KM12 colon
[20] = test system: LXFL 529 NSCLC
[21] = test system: OVCAR-4 ovarian
[22] = test system: SNB-19 CNS
[23] = test system: U251 CNS
[24] = test system: SNB-75 CNS
[25] = test system: DMS 114 small cell lung
[26] = test system: K-562 leukemia
[27] = test system: UACC-62 melanoma
[28] = test system: SF-268 CNS
[29] = test system: MALME-3M melanoma
[30] = test system: COLO 205 colon
[31] = test system: SK-MEL-28 melanoma
[32] = test system: NCI-H23 lung
[33] = test system: RPMI-8226 leukemia
[34] = test system: A498 renal
[35] = test system: HOP-62 NSCLC
[36] = test system: ACHN renal
[37] = test system: LOX IMVI melanoma
[38] = test system: HCC-2998 colon
[39] = test system: 786-0 renal
[40] = test system: DLD-1 colon
[41] = test system: CAKI-1 renal
[42] = test system: MOLT-4 leukemia
[43] = test system: A549 NSCLC
[44] = test system: CCRF-CEM leukemia
[45] = test system: EKVX NSCLC
[46] = test system: HCT-15 colon
[47] = test system: NCI-H522 lung
[48] = test system: SK-MEL-5 melanoma
[49] = test system: NCI-H226 lung
[50] = test system: SR leukemia
[51] = test system: SW-620 colon
[52] = test system: OVCAR-8 ovarian
[53] = test system: SN12C renal

Q: With `CCOP(=O)(OCC)/C(C#N)=C/c1cc(O)ccc1O` as the molecule, how does the TGI [1] read?
A: The TGI was > 100 µM.

Q: What about the TGI [2] of the same molecule?
A: The TGI was > 100 µM.

Q: And the TGI [3]?
A: The TGI was > 100 µM.

Q: And the TGI [4]?
A: The TGI was > 100 µM.

Q: And the TGI [5]?
A: Its TGI is > 100 µM.

Q: What about the TGI [6] of the same molecule?
A: The TGI was > 100 µM.

Q: What about the TGI [7] of the same molecule?
A: The TGI was > 100 µM.

Q: What about the TGI [8] of the same molecule?
A: Its TGI is > 100 µM.

Q: And the TGI [9]?
A: Its TGI is > 100 µM.

Q: And the TGI [10]?
A: Its TGI is > 100 µM.

Q: What about the TGI [11] of the same molecule?
A: The TGI was > 100 µM.

Q: And the TGI [12]?
A: Its TGI is > 100 µM.

Q: And the TGI [13]?
A: The TGI was > 100 µM.

Q: What about the TGI [14] of the same molecule?
A: Its TGI is > 100 µM.

Q: What about the TGI [15] of the same molecule?
A: The TGI was > 100 µM.

Q: And the TGI [16]?
A: Its TGI is > 100 µM.

Q: And the TGI [17]?
A: Its TGI is > 100 µM.

Q: What about the TGI [18] of the same molecule?
A: The TGI was > 100 µM.

Q: And the TGI [19]?
A: Its TGI is > 100 µM.

Q: And the TGI [20]?
A: The TGI was > 100 µM.

Q: What about the TGI [21] of the same molecule?
A: The TGI was > 100 µM.

Q: And the TGI [22]?
A: The TGI was > 100 µM.

Q: And the TGI [23]?
A: The TGI was > 100 µM.

Q: What about the TGI [24] of the same molecule?
A: Its TGI is > 100 µM.

Q: And the TGI [25]?
A: The TGI was > 100 µM.

Q: And the TGI [26]?
A: The TGI was > 100 µM.

Q: What about the TGI [27] of the same molecule?
A: Its TGI is > 100 µM.

Q: And the TGI [28]?
A: Its TGI is > 100 µM.

Q: And the TGI [29]?
A: Its TGI is > 100 µM.

Q: And the TGI [30]?
A: The TGI was > 100 µM.

Q: And the TGI [31]?
A: Its TGI is > 100 µM.

Q: And the TGI [32]?
A: The TGI was > 100 µM.

Q: And the TGI [33]?
A: Its TGI is > 100 µM.

Q: What about the TGI [34] of the same molecule?
A: Its TGI is > 100 µM.

Q: And the TGI [35]?
A: Its TGI is > 100 µM.

Q: And the TGI [36]?
A: Its TGI is > 100 µM.

Q: What does the source list for `CN/N=C(/CC(=O)c1sc(-n2nc(-c3ccccc3)cc2-c2ccccc2)nc1C)C(=O)Nc1ccc(Cl)c(Cl)c1`?
A: TGI [1]: > 100 µM; TGI [2]: > 100 µM; TGI [37]: > 100 µM; TGI [4]: > 100 µM; TGI [38]: > 100 µM; TGI [6]: > 100 µM; TGI [39]: > 100 µM; TGI [7]: > 100 µM; TGI [8]: > 100 µM; TGI [40]: > 100 µM; TGI [9]: > 100 µM; TGI [10]: > 100 µM; TGI [41]: > 100 µM; TGI [11]: > 100 µM; TGI [12]: > 100 µM; TGI [13]: > 100 µM; TGI [14]: > 100 µM; TGI [15]: > 100 µM; TGI [16]: 70.4 µM; TGI [17]: > 100 µM; TGI [18]: 69.6 µM; TGI [19]: > 100 µM; TGI [20]: > 100 µM; TGI [42]: > 100 µM; TGI [21]: > 100 µM; TGI [43]: > 100 µM; TGI [22]: > 100 µM; TGI [44]: > 100 µM; TGI [23]: > 100 µM; TGI [45]: 17.7 µM; TGI [26]: > 100 µM; TGI [27]: > 100 µM; TGI [28]: > 100 µM; TGI [29]: > 100 µM; TGI [46]: > 100 µM; TGI [47]: > 100 µM; TGI [48]: > 100 µM; TGI [30]: > 100 µM; TGI [31]: > 100 µM; TGI [49]: > 100 µM; TGI [50]: > 100 µM; TGI [51]: > 100 µM; TGI [32]: > 100 µM; TGI [52]: > 100 µM; TGI [33]: > 100 µM; TGI [53]: > 100 µM; TGI [34]: > 100 µM; TGI [35]: > 100 µM; TGI [36]: > 100 µM
